Results published in PubChem BioAssay (NCI).
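Assay format: 96-well plates, 48-hour exposure. GI50: concentration for 50% inhibition of growth. TGI: total growth inhibition.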

Assays:
Test in all cases: inhibition of tumour cell growth, NCI panel, 48 h
OVCAR-5 ovarian = test system: OVCAR-5 ovarian
HOP-92 NSCLC = test system: HOP-92 NSCLC
HOP-62 NSCLC = test system: HOP-62 NSCLC
SF-295 CNS = test system: SF-295 CNS
NCI-H522 lung = test system: NCI-H522 lung
K-562 leukemia = test system: K-562 leukemia
ACHN renal = test system: ACHN renal
CCRF-CEM leukemia = test system: CCRF-CEM leukemia
SF-539 CNS = test system: SF-539 CNS
U251 CNS = test system: U251 CNS

## CNC(=O)c1cncc(/C=C/c2c(Cl)cccc2Cl)c1
OVCAR-5 ovarian
  GI50: > 25 µM
  TGI: > 25 µM
HOP-92 NSCLC
  GI50: 2.31 µM
  TGI: > 25 µM
HOP-62 NSCLC
  GI50: > 25 µM
  TGI: > 25 µM
SF-295 CNS
  GI50: > 12.8 µM
  TGI: > 25 µM
NCI-H522 lung
  GI50: 8.38 µM
  TGI: > 25 µM
K-562 leukemia
  GI50: 8.14 µM
  TGI: > 25 µM
ACHN renal
  GI50: > 23.2 µM
  TGI: > 25 µM
CCRF-CEM leukemia
  GI50: > 25 µM
  TGI: > 25 µM
SF-539 CNS
  GI50: 9.43 µM
  TGI: > 25 µM
U251 CNS
  GI50: > 25 µM
  TGI: > 25 µM

## Cc1cc(Cl)ccc1Nc1nc(C(F)(F)F)ccc1C(=O)Nc1cccc(C(F)(F)F)c1
OVCAR-5 ovarian
  GI50: 4.75 µM
  TGI: 19.3 µM
HOP-92 NSCLC
  GI50: 2.21 µM
  TGI: 8.16 µM
HOP-62 NSCLC
  GI50: 2.6 µM
  TGI: 11.9 µM
SF-295 CNS
  GI50: 3.24 µM
  TGI: 13.3 µM
NCI-H522 lung
  GI50: 3.47 µM
  TGI: 13.4 µM
K-562 leukemia
  GI50: 2.59 µM
  TGI: 11.2 µM
ACHN renal
  GI50: 2.75 µM
  TGI: 9.01 µM
CCRF-CEM leukemia
  GI50: 3.41 µM
  TGI: 14.7 µM
SF-539 CNS
  GI50: 3.27 µM
  TGI: 14.7 µM
U251 CNS
  GI50: 3 µM
  TGI: 9.72 µM

## CCc1nc(N)nc(N)c1C#CC(C)c1cc(-c2ccnc(C)c2)c2oc(C)nc2c1 (stereo not given)
OVCAR-5 ovarian
  GI50: < 0.0103 µM
  TGI: 13.6 µM
HOP-92 NSCLC
  GI50: 0.703 µM
  TGI: 11.4 µM
HOP-62 NSCLC
  GI50: < 0.01 µM
  TGI: 5.92 µM
SF-295 CNS
  GI50: < 0.01 µM
  TGI: 6.39 µM
NCI-H522 lung
  GI50: 0.0222 µM
  TGI: 9.66 µM
K-562 leukemia
  GI50: < 0.01 µM
  TGI: 31.3 µM
ACHN renal
  GI50: < 0.01 µM
  TGI: 11 µM
CCRF-CEM leukemia
  GI50: < 0.01 µM
  TGI: 29.9 µM
SF-539 CNS
  GI50: < 0.01 µM
  TGI: 2.4 µM
U251 CNS
  GI50: < 0.01 µM
  TGI: 11.9 µM

## COc1ccc2c(c1)C=C1CSCC3=Cc4cc(OC)ccc4OC13O2
OVCAR-5 ovarian
  GI50: 0.757 µM
  TGI: > 100 µM
HOP-92 NSCLC
  GI50: 4.6 µM
  TGI: > 100 µM
HOP-62 NSCLC
  GI50: 0.407 µM
  TGI: > 100 µM
SF-295 CNS
  GI50: 0.316 µM
  TGI: > 100 µM
NCI-H522 lung
  GI50: 0.232 µM
  TGI: 0.937 µM
K-562 leukemia
  GI50: 0.228 µM
  TGI: > 100 µM
ACHN renal
  GI50: 0.863 µM
  TGI: > 100 µM
CCRF-CEM leukemia
  GI50: 0.328 µM
  TGI: > 85.3 µM
SF-539 CNS
  GI50: 0.254 µM
  TGI: 0.816 µM
U251 CNS
  GI50: 0.427 µM
  TGI: > 100 µM

## CC1=NN(c2ccccc2)C(=O)C1N=Nc1ccc(S(N)(=O)=O)cc1 (stereo not given)
OVCAR-5 ovarian
  TGI: > 100 µM
HOP-92 NSCLC
  TGI: > 100 µM
HOP-62 NSCLC
  TGI: > 100 µM
SF-295 CNS
  TGI: > 100 µM
NCI-H522 lung
  TGI: > 100 µM
K-562 leukemia
  TGI: > 100 µM
ACHN renal
  TGI: > 100 µM
CCRF-CEM leukemia
  TGI: > 100 µM
SF-539 CNS
  TGI: > 100 µM
U251 CNS
  TGI: > 100 µM

## O=C1NC(c2ccccc2)N=C2Oc3ccccc3C=C12 (stereo not given)
OVCAR-5 ovarian
  TGI: > 100 µM
HOP-92 NSCLC
  TGI: > 100 µM
HOP-62 NSCLC
  TGI: > 66.7 µM
SF-295 CNS
  TGI: > 100 µM
NCI-H522 lung
  TGI: > 100 µM
K-562 leukemia
  TGI: > 100 µM
ACHN renal
  TGI: > 100 µM
CCRF-CEM leukemia
  TGI: 2.65 µM
SF-539 CNS
  TGI: 17.6 µM
U251 CNS
  TGI: > 100 µM

## O=C(O)C1CC2CC(=O)C1C2 (stereo not given)
OVCAR-5 ovarian
  TGI: > 100 µM
HOP-92 NSCLC
  TGI: > 100 µM
HOP-62 NSCLC
  TGI: > 100 µM
SF-295 CNS
  TGI: > 100 µM
NCI-H522 lung
  TGI: > 100 µM
K-562 leukemia
  TGI: > 100 µM
ACHN renal
  TGI: > 100 µM
CCRF-CEM leukemia
  TGI: > 100 µM
SF-539 CNS
  TGI: > 100 µM
U251 CNS
  TGI: > 100 µM

## CNc1ncc2cc(Oc3ccc(F)cc3F)c(=O)n(C)c2n1
OVCAR-5 ovarian
  GI50: > 25 µM
  TGI: > 25 µM
HOP-92 NSCLC
  GI50: 3.82 µM
  TGI: > 25 µM
HOP-62 NSCLC
  GI50: > 25 µM
  TGI: > 25 µM
SF-295 CNS
  GI50: > 25 µM
  TGI: > 25 µM
NCI-H522 lung
  GI50: > 25 µM
  TGI: > 25 µM
K-562 leukemia
  GI50: > 25 µM
  TGI: > 25 µM
ACHN renal
  GI50: > 25 µM
  TGI: > 25 µM
CCRF-CEM leukemia
  GI50: > 25 µM
  TGI: > 25 µM
SF-539 CNS
  GI50: > 25 µM
  TGI: > 25 µM
U251 CNS
  GI50: > 25 µM
  TGI: > 25 µM
